Assay [1] has as its target T1, human ferroportin (Homo sapiens, UniProt Q9NP59).
T1 sequence (Q9NP59 1-571): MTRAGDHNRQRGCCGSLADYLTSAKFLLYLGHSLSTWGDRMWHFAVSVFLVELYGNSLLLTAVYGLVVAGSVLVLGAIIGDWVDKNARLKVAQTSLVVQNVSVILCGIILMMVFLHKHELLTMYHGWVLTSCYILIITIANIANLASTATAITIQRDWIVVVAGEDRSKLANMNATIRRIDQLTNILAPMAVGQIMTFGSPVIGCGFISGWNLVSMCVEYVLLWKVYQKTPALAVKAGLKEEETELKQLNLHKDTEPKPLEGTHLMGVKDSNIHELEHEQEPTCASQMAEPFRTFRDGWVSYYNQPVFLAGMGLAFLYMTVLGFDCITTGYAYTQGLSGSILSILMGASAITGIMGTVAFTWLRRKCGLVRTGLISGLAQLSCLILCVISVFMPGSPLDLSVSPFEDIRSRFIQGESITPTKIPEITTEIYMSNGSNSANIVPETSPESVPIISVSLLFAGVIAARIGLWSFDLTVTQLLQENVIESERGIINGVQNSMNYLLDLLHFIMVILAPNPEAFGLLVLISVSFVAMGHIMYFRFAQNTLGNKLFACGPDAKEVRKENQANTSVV
The class given is cell-based. To be noted: for % Activity At 1 uM: at 1 uM peptide, monomers and disulphide-linked dimers. From the text: The cDNA encoding the human ferroportin (SLC40A1) was cloned from a cDNA clone from Origene (NM_014585). The DNA encoding the ferroportin was amplified by PCR using primers also encoding terminal restriction sites for subcloning, but without the termination codon. The ferroportin receptor was subcloned into a mammalian GFP expression vector containing a neomycin (G418) resistance marker in such that the reading frame of the ferroportin was fused in frame with the GFP protein. The fidelity of the DNA encoding the protein was confirmed by DNA sequencing. HEK293 cells were used for transfection of the ferroportin-GFP receptor expression plasmid. The cells were grown according to standard protocol in growth medium and transfected with the plasmids using Lipofectamine (manufacturer's protocol, Invitrogen). […] The cells were propagated and frozen in aliquots.
A retro inverse peptide is a peptide with a reversed sequence in all D amino acids. […] The EC50 of these reference compounds for ferroportin degradation was determined according to the activity assay described above.

Assay [2] has as its system serum iron. Nature of the assay: Reduction of free plasma iron in rats (serum iron after i.p. dosing). To be noted: IP dosing, FIGS. 2 and 3. The class given is in vivo, Sprague-Dawley rats. The procedure:
At Day 1, the animals were monitored for free Fe^2+ in serum. In order to reach a homogenous serum level, Fe^2+ was analyzed and a homogenous cohort of 7 or 8 animals randomized to each treatment group. At Day 2, an acute experiment where the animals were subjected to i.p. dosing of test compound and subsequent tail vein blood samples. Prior to dosing, the animals were put under a heating lamp for 3-5 minutes. Blood samples were drawn from the tail vein from all animals in order to determine serum iron levels prior to vehicle or compound dosing. Animals were dosed i.p. with 1 ml of test substance in vehicle or just vehicle and blood samples of 250 μl was drawn from each animal at t=0, 60, 120, 240, 360 min and 24 hours in the study of the reference compound. The dose response study performed with Retro Inverse (RI) mini-Hepcidin (Reference compound), and the efficacy study performed with Compound No. 2 were performed as two separate experiments. […]
Male Sprague-Dawley rats weighing 200-250 g were used in the study. […] Humane endpoints were applied, according to OECD's “Guidelines for Endpoints in Animal Study Proposals.” The animals were monitored daily.
Iron content in plasma/serum is measured for iron content using a colorimetric assay on the Cobas c 111 according to instructions from the manufacturer of the assay (assay: IRON2: ACN 661). […]

The test system of assay [3] is serum iron. Nature of the assay: In vivo serum iron reduction in mice. To be noted: tested in rats or in mice. Details: species or system mice (C57-BL6). The procedure:
Instead of rats, mice (C57-BL6) were tested.
A similar experiment was performed with lower doses to assess the dose response of these compounds for inducing serum iron reduction. Methods were as described above in this Example, except for the following parameters: n=4 mice/group, however n=8 for the vehicle, as two groups were pooled. Mice were administered test compounds at two separate dosages (300 nmol/kg or 1000 nmol/kg), via subcutaneous injection. Serum iron levels were assessed as in Example 8 two hours after peptide or vehicle injection. […] Moreover, it was clear that several of the compounds were able to induce maximum effects at dosages as low as 300 nmol/kg.
The route of peptide administration was via subcutaneous injection, unless otherwise indicated as having been via intraperitoneal injection (this is noted on the table by “i.p.” in parentheses following the “yes” or “no” determination).
The peptides were also tested for other pharmacokinetic/pharmacodynamic (PK/PD) parameters using methods commonly know by the skilled artisan. These parameters included determinations regarding stability (hours stable in plasma from the indicated human or rat subject), half-life in mice, and in vitro activity (EC50), tested as described in Example 2.

The mark [4] stands for this setting: Hepcidin analog peptides, read-out: Potency EC50.
The mark [5] stands for this setting: read-out: EC50 (nM) (n > 3), alanine scan of Compound 18.
[6] abbreviates: cysteine replacement scan of Mini-Hepcidin derivatives.
[7] abbreviates: read-out: EC50 (nM) (n = 3), in vitro activity as in Example 2, peptide monomers and dimers dimerized through a single disulphide linkage, n = 3.

These results are taken from patent US9822157B2 (priority 2013, dated 2017).

Like-named read-outs stand apart in the source and are kept apart here. * marks the point of attachment. Palmitoyl = CCCCCCCCCCCCCCCC(=O)*

Usually EC50 stands for the concentration needed to bring the measured effect to its halfway point.

Turning to “H-DTHFPICIFGPRAKGWVCM-NH2 (cysteine pairing not given here) [Compound 16]”, the concentration giving a half-maximal response (EC50) in assay [1] (setting [4]) and in assay [1] (setting [5]) was 88 nM in each case.
As for “H-DTHFPICIFGPRAKGWVCM-NH2 (cysteine pairing not given here) [Compound 28]”, in assay [1] (setting [4]), the EC50 is 88 nM.
For “H-DTHFPICIFGPRSKAWVCM-NH2 (cysteine pairing not given here) [Compound 31]”, the EC50 in assay [1] (setting [4]) and in assay [1] (setting [5]) was 175 nM in each case.
Regarding “H-DTHFPICIFGPRSKGAVCM-NH2 (cysteine pairing not given here) [Compound 66]”, the concentration for a half-maximal effect (EC50) in assay [1] (setting [4]) and in assay [1] (setting [5]) was 520 nM in each case.
With H-DTHFPIICI-NH2 [Compound 275], in assay [1] (Hepcidin analog peptides), the “Potency EC50 (nM)” value is recorded as “Inactive”. Besides, the “EC50 (nM) (n > 3)” value in assay [1] (setting [6]) is reported as “Not active”.
Take “H-DTHFRCIIFGPRSKGWVCK-NH2 (cysteine pairing not given here) [Compound 125]”: the “Potency EC50 (nM)” value in assay [1] (Hepcidin analog peptides) is given as “Inactive”.
Consider H-DTHICIAIF-NH2 [Compound 276], for which the “Potency EC50 (nM)” value in assay [1] (Hepcidin analog peptides) is given as “Inactive”. The “EC50 (nM) (n > 3)” value in assay [1] (setting [6]) is “Not active”.
In the case of H-DTKFPCIIF-NH2 [Compound 302], the “% Activity At 1 uM” value in assay [1] is 60%. For the same substance, the concentration for a half-maximal effect (EC50) in assay [1] (read-out: EC50 (n = 3), cells printed in μM, in vitro activity as in Example 2, peptide monomers and dimers dimerized through a single disulphide linkage, n = 3) is greater than 1000 nM.
In the case of “H-EDTHFPCIIFGPRSKGWVCK-NH2 (cysteine pairing not given here) [Compound 103]”, in assay [1] (setting [4]), the concentration for a half-maximal effect (EC50) is greater than 1000 nM.
On the same count and under the same terms, for “H-EDTHFPCIIFGPRSKGWVCM-NH2 (cysteine pairing not given here) [Compound 137]” the value was 873 nM.
“H-HFPCIIFGPRSKGWVCK-NH2 (cysteine pairing not given here) [Compound 99]”: in assay [1] (Hepcidin analog peptides), the “Potency EC50 (nM)” value is given as “Inactive”.
With “H-HFPCIIFGPRSKGWVCM-NH2 (cysteine pairing not given here) [Compound 133]”, the concentration giving a half-maximal response (EC50) in assay [1] (setting [4]) is greater than 1000 nM.
Regarding “H-THFPCIIFGPRSKGWVCK-NH2 (cysteine pairing not given here) [Compound 97]”, the “Potency EC50 (nM)” value in assay [1] (Hepcidin analog peptides) is “Inactive”.
As to “H-THFPCIIFGPRSKGWVCM-NH2 (cysteine pairing not given here) [Compound 132]”, the half-maximal effective concentration (EC50) in assay [1] (setting [4]) is greater than 1000 nM.
Same read-out and setting: as for “H-VDTHFPCIKFGPRSKGWVCK-NH2 (cysteine pairing not given here) [Compound 164]”, the figure is 146 nM.
With “Hy-DPhe-DIle-DCys-DIle-DPro-DPhe-DHis-DThr-DAsp-NH2 [RI-Mini Hepcidin, reference compound]”, the serum iron level result in assay [2] was “in neither case significant”.
For “Hy-DTHF-(D)--Ala-CIIF-NH2 [Compound 281]”, the “Potency EC50 (nM)” value in assay [1] (Hepcidin analog peptides) was “Inactive”. Further, the “EC50 (nM) (n > 3)” value in assay [1] (alanine scan of Compound 1) is “Not active”.
Consider “Hy-DTHF-[Sarc]-CIIFGPRSKGWVCK-NH2 [Compound 127]”, for which the “Potency EC50 (nM)” value in assay [1] (Hepcidin analog peptides) is listed as “Inactive”.
Regarding “Hy-DTHF-[β-Ala]-CIIFGPRSKGWVCK-NH2 [Compound 129]”, the “Potency EC50 (nM)” value in assay [1] (Hepcidin analog peptides) was “Inactive”.
With Hy-DTHFPCIIF-NH2 [Compound 1], the “% Activity At 1 uM” value in assay [1] was 92%.
“Hy-DTHFPIC(1)IFC(2)C(3)GC(2)C(4)HRSKC(3)GMC(4)C(1)KT-OH [Hepcidin, reference compound]”: the “In Vivo Activity (s.c.) 300 nmol/kg” value in assay [3] (300 nmol/kg) is on record as “Yes”. In addition, the “In Vivo Activity (s.c.) 1000 nmol/kg” value in assay [3] (1000 nmol/kg) is “Yes”.
On to Hy-ETHFPCIIF-NH2 [Compound 300], for which the “% Activity At 1 uM” value in assay [1] stood at 77%. Moreover, in assay [1] (setting [7]), the concentration giving a half-maximal response (EC50) is greater than 300 nM.
Hy-LTHFPCIIF-NH2 [Compound 299]: in assay [1], the “% Activity At 1 uM” value is reported as 64%. For the same substance, in assay [1] (setting [7]), the EC50 was greater than 300 nM.
“Isovaleric acid-DTHAPCIKFEPRSKGWECK-NH2 [Compound 243]”: the “Potency EC50 (nM)” value in assay [1] (Hepcidin analog peptides) is “Inactive”.
On to “Isovaleric acid-DTHFPAIIF-NH2 [Compound 289]”, for which the “Potency EC50 (nM)” value in assay [1] (Hepcidin analog peptides) was “Inactive”.
Consider “Isovaleric acid-DTHFPCIEFGPRSKGWVCK-NH2 [Compound 15]”, for which the “In Vivo Activity (s.c.) 1000 nmol/kg” value in assay [3] (1000 nmol/kg) is reported as “Minor”.
As to “Isovaleric acid-DTHFPCIIF-NH2 [Compound 288]”, the “% Activity At 1 uM” value in assay [1] was 100%.
Take “Isovaleric acid-DTHFPCIIFEPRSKGWVCK-NH2 [Compound 105]”: in assay [3] (300 nmol/kg), the “In Vivo Activity (s.c.) 300 nmol/kg” value was “Yes”. The “In Vivo Activity (s.c.) 1000 nmol/kg” value in assay [3] (1000 nmol/kg) is “Yes”.
For “Isovaleric acid-DTHFPCIIFGPRSKGCK-NH2 [Compound 115]”, the “In Vivo Activity (s.c.) 1000 nmol/kg” value in assay [3] (1000 nmol/kg) is on record as “No”.
In the case of “Isovaleric acid-DTHFPCIIFGPRSRGWVCK-NH2 [Compound 3]”, the “In Vivo Activity 300 nmol/kg (i.p.)” value in assay [3] (300 nmol/kg, i.p.) is on record as “No (i.p.)”. The “In Vivo Activity 1000 nmol/kg (i.p.)” value in assay [3] (1000 nmol/kg, i.p.) is “No (i.p.)”.
On to “Isovaleric acid-DTHFPCIKF-K(PEG8)-PRSKGWVCK-NH2 [Compound 150]”, for which the “In Vivo Activity (s.c.) 300 nmol/kg” value in assay [3] (300 nmol/kg) is recorded as “Yes”.
“Isovaleric acid-DTHFPCIKF-NH2 [Compound 291]”: the “% Activity At 1 uM” value in assay [1] is reported as 100%.
For “Isovaleric acid-DTHFPCIKFEPRSKGCK-NH2 [Compound 184]”, in assay [3] (300 nmol/kg), the “In Vivo Activity (s.c.) 300 nmol/kg” value is on record as “Yes”. Also, the “In Vivo Activity (s.c.) 1000 nmol/kg” value in assay [3] (1000 nmol/kg) is “Yes”.
For “Isovaleric acid-DTHFPCIKFGPRSKGWVCK-NH2 [Compound 9]”, the “In Vivo Activity (s.c.) 300 nmol/kg” value in assay [3] (300 nmol/kg) is “Yes”. In addition, the “In Vivo Activity (s.c.) 1000 nmol/kg” value in assay [3] (1000 nmol/kg) is reported as “Yes”.
Turning to “Isovaleric acid-DTHFPCIQFGPRSKGWVCK-NH2 [Compound 10]”, the “In Vivo Activity (s.c.) 1000 nmol/kg” value in assay [3] (1000 nmol/kg) was “Minor”.
As to “Isovaleric acid-DTHFPICIFGPRS-K(PEG8)-GWVC-NH2 [Compound 176]”, in assay [3] (300 nmol/kg), the “In Vivo Activity (s.c.) 300 nmol/kg” value is reported as “Yes”.
Turning to “Isovaleric acid-DTHFPSIIF-NH2 [Compound 290]”, in assay [1] (Hepcidin analog peptides), the “Potency EC50 (nM)” value is “Inactive”.
With “Isovaleric acid-HFPCIIFGPRSKGWVCK-NH2 [Compound 100]”, the “Potency EC50 (nM)” value in assay [1] (Hepcidin analog peptides) is on record as “Inactive”.
In the case of “Isovaleric acid-THFPCIIFGPRSKGWVCK-NH2 [Compound 98]”, the “Potency EC50 (nM)” value in assay [1] (Hepcidin analog peptides) is “Inactive”.
As for “Palmitoyl-DTHFPCIKFGPRSKGWVCK-NH2 (cysteine pairing not given here) [Compound 216]”, the EC50 in assay [1] (setting [4]) was greater than 1000 nM.
